These results are taken from patent US20200078468A1, “NEUROTENSIN RECEPTOR BINDING CONJUGATES AND FORMULATIONS THEREOF” (priority 2016, published 2020).

Assay [1] addresses T1, human NTSR1 (Homo sapiens, UniProt P30989).
T1 construct: host or cells: HEK-293 cells (membrane preparations)
The assay can be described thus: radioligand-receptor binding assay, [125I] labeled neurotensin (Eurofins Panlabs). To be noted: [125I] neurotensin 0.02 nM, membranes from NTSR1 expressing HEK-293 cells, 45 minute incubation, Cheng and Prusoff; read-out: NTSR1 binding Ki. The method, boiled down:
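Membranes from HEK-293 cells expressing human NTSR1 incubated 45 min with 0.02 nM [125I]neurotensin and conjugate in 6-point 3-fold dilutions from 100 or 10 nM; bound radioactivity counted after filtration. IC50 by nonlinear regression, converted to Ki via Cheng–Prusoff using historical ligand Kd.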

The test system of assay [2] is SW48 (human colon cancer cells). The assay can be described thus: inhibition of SW48 cell proliferation (CellTiter Glo). The class given is cell-based. To be noted: NTSR1 targeted compound; 72 hrs; read-out: SW-48 proliferation IC50. An outline of the steps:
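Cells plated at 5,000/well and grown 24 hrs were exposed to conjugates for 72 hrs at 37° C, 5% CO2, in a ten-point three-fold series starting at 10 μM; vehicle was 0.01% DMSO. Proliferation was read by CellTiter Glo. % inhibition was taken relative to vehicle, with IC50 from four-parameter nonlinear regression.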
(ATP-based viability assays read luminescence as a measure of living cells.)

pIC50, pKi: −log10 of the molar value. Numbered stars: 1 amine (or outer) side, 2 acyl side, 3 side chain; on linkers, the order of the positions; unused ones are H or OH. Bridge positions count the residues as written; N and C are the ends. Square brackets hold non-standard residues; d marks the D form. Peptide text beside a SMILES is read from it. I, II: the chains in the order shown. * marks the point of attachment. X3 = COc1cccc2c1C(=O)c1c(O)c3c(c(O)c1C2=O)C[C@@](O)(C(=O)CO)C[C@@H]3O[C@H]1C[C@H](NC(=O)OCCS*)[C@H](O)[C@H](C)O1; Hexanoyl(6-succinimido-3yl) = O=C1CC([*:1])C(=O)N1CCCCCC(=O)[*:2]; Dolaproine = CO[C@@H]([C@@H]1CCCN1)[C@@H](C)C(=O)O; Dil = CC[C@H](C)[C@H](NC)[C@@H](CC(=O)O)OC; PABC = O=C(OCc1ccc(N[*:1])cc1)[*:2]; X1 = C[C@@H](N*)[C@@H](O)c1ccccc1; Cit = NC(=O)NCCC[C@H](N)C(=O)O; Pen = CC(C)(S)[C@H](N)C(=O)O; Tle = CC(C)(C)[C@H](N)C(=O)O; NMeV = CN[C@H](C(=O)O)C(C)C A value given as a limit tells only on which side of the number the result lay.

T1 sequence (P30989 whole entry): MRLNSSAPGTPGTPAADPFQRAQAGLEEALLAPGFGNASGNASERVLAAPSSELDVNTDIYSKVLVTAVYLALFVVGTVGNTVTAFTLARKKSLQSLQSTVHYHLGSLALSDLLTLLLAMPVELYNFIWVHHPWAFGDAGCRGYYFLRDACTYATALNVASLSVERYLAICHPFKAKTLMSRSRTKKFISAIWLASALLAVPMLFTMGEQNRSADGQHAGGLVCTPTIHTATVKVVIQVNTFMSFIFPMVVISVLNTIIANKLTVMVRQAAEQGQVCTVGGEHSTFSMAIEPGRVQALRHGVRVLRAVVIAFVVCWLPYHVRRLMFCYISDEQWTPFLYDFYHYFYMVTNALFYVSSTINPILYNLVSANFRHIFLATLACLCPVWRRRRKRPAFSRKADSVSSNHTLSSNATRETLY

In general, pKi refers to the Ki on a negative log10 scale, so that one unit is a factor of ten. Take `COc1cc2cc(c1Cl)N(C)C(=O)C[C@H](OC(=O)[C@H](C)N(C)C(=O)CCSC1CC(=O)N(CCCNC(=O)CNC(=O)[C@H](CC(C)C)NC(=O)[C@H](Cc3ccccc3)NC(=O)CNC(=O)CCCCCN3C(=O)CC(SC(C)(C)[C@H](NC(C)=O)C(=O)N4CCC[C@H]4C(=O)N[C@@H](CCCNC(=N)N)C(=O)N(C)[C@@H](CCCNC(=N)N)C(=O)N4CCC[C@H]4C(=O)N[C@@H](Cc4c[nH]c5ccccc45)C(=O)N[C@H](C(=O)N[C@@H](CC(C)C)C(=O)O)C(C)(C)C)C3=O)C1=O)[C@]1(C)O[C@H]1[C@H](C)[C@@H]1C[C@@](O)(NC(=O)O1)[C@H](OC)/C=C/C=C(\C)C2` (some centres unmarked) [Compound 19]: the pKi in assay [1] was less than 7.00. The pIC50 in assay [2] is 8.20.

For `COc1cc2cc(c1Cl)N(C)C(=O)C[C@H](OC(=O)[C@H](C)N(C)C(=O)CCSC1CC(=O)N(CCCNC(=O)CNC(=O)[C@H](CC(C)C)NC(=O)[C@H](Cc3ccccc3)NC(=O)CNC(=O)CCCCCN3C(=O)CC(SC(C)(C)[C@H](NC(C)=O)C(=O)N4CCC[C@H]4C(=O)N[C@@H](CCCNC(=N)N)C(=O)N(C)[C@@H](CCCNC(=N)N)C(=O)N4CCC[C@H]4C(=O)N[C@@H](Cc4ccc(O)cc4)C(=O)N[C@H](C(=O)N[C@@H](CC(C)C)C(=O)O)C(C)(C)C)C3=O)C1=O)[C@]1(C)O[C@H]1[C@H](C)[C@@H]1C[C@@](O)(NC(=O)O1)[C@H](OC)/C=C/C=C(\C)C2` (some centres unmarked) [Compound 17], the pKi in assay [1] is 7.97. In addition, the pIC50 in assay [2] was 8.41.

On to `COc1cc2cc(c1Cl)N(C)C(=O)C[C@H](OC(=O)[C@H](C)N(C)C(=O)CCSC1CC(=O)N(CCCNC(=O)CNC(=O)[C@H](CC(C)C)NC(=O)[C@H](Cc3ccccc3)NC(=O)CNC(=O)CCCCCN3C(=O)CC(SC(C)(C)[C@H](NC(C)=O)C(=O)N4CCC[C@H]4C(=O)N[C@@H](CCCCN)C(=O)N(C)[C@@H](CCCNC(=N)N)C(=O)N4CCC[C@H]4C(=O)N[C@@H](Cc4ccc(O)cc4)C(=O)N[C@H](C(=O)N[C@@H](CC(C)C)C(=O)O)C(C)(C)C)C3=O)C1=O)[C@]1(C)O[C@H]1[C@H](C)[C@@H]1C[C@@](O)(NC(=O)O1)[C@H](OC)/C=C/C=C(\C)C2` (some centres unmarked) [Compound 22], for which the pKi in assay [1] was 7.90. In addition, in assay [2], the pIC50 was 9.28.

Take `COc1cc2cc(c1Cl)N(C)C(=O)C[C@H](OC(=O)[C@H](C)N(C)C(=O)CCSC1CC(=O)N(CCCNC(=O)CNC(=O)[C@H](CC(C)C)NC(=O)[C@H](Cc3ccccc3)NC(=O)CNC(=O)CCCCCN3C(=O)CC(SCCC(=O)NCCCC[C@H](NC(C)=O)C(=O)N4CCC[C@H]4C(=O)N[C@H](CCCNC(=N)N)C(=O)N[C@@H](CCCNC(=N)N)C(=O)N4CCC[C@H]4C(=O)N[C@@H](Cc4ccc(O)cc4)C(=O)N[C@H](C(=O)N[C@@H](CC(C)C)C(=O)O)C(C)(C)C)C3=O)C1=O)[C@]1(C)O[C@H]1[C@H](C)[C@@H]1C[C@@](O)(NC(=O)O1)[C@H](OC)/C=C/C=C(\C)C2` (some centres unmarked) [Compound 29]: the pKi in assay [1] was 8.75. For the same molecule, the pIC50 in assay [2] was 7.66.

As to `COc1cc2cc(c1Cl)N(C)C(=O)C[C@H](OC(=O)[C@H](C)N(C)C(=O)CCSC1CC(=O)N(CCCNC(=O)CNC(=O)[C@H](CC(C)C)NC(=O)[C@H](Cc3ccccc3)NC(=O)CNC(=O)CCCCCN3C(=O)CC(SCCC(=O)NCCCC[C@H](NC(C)=O)C(=O)N4CCC[C@H]4C(=O)N[C@@H](CCCNC(=N)N)C(=O)N[C@@H](CCN)C(=O)N4CCC[C@H]4C(=O)N[C@@H](Cc4ccc(O)cc4)C(=O)N[C@H](C(=O)N[C@@H](CC(C)C)C(=O)O)C(C)(C)C)C3=O)C1=O)[C@]1(C)O[C@H]1[C@H](C)[C@@H]1C[C@@](O)(NC(=O)O1)[C@H](OC)/C=C/C=C(\C)C2` (some centres unmarked) [Compound 31], the pKi in assay [1] is 8.62. In addition, the pIC50 in assay [2] was 7.12.

For `COc1cc2cc(c1Cl)N(C)C(=O)C[C@H](OC(=O)[C@H](C)N(C)C(=O)CCSC1CC(=O)N(CCCNC(=O)CNC(=O)[C@H](CC(C)C)NC(=O)[C@H](Cc3ccccc3)NC(=O)CNC(=O)CCCCCN3C(=O)CC(SCCC(=O)NCCCC[C@H](NC(C)=O)C(=O)N4CCC[C@H]4C(=O)N[C@@H](CCCCN)C(=O)N[C@@H](CCN)C(=O)N4CCC[C@H]4C(=O)N[C@@H](Cc4ccc(O)cc4)C(=O)N[C@H](C(=O)N[C@@H](CC(C)C)C(=O)O)C(C)(C)C)C3=O)C1=O)[C@]1(C)O[C@H]1[C@H](C)[C@@H]1C[C@@](O)(NC(=O)O1)[C@H](OC)/C=C/C=C(\C)C2` (some centres unmarked) [Compound 32], the pKi in assay [1] is 8.30. In assay [2], the pIC50 is 7.15.

On to `COc1cc2cc(c1Cl)N(C)C(=O)C[C@H](OC(=O)[C@H](C)N(C)C(=O)CCSC1CC(=O)N(CCCNC(=O)CNC(=O)[C@H](CC(C)C)NC(=O)[C@H](Cc3ccccc3)NC(=O)CNC(=O)CCCCCN3C(=O)CC(SCCC(=O)NCCCC[C@H](NC(C)=O)C(=O)N4CCC[C@H]4C(=O)N[C@@H](CCCCN)C(=O)N[C@@H](CCCNC(=N)N)C(=O)N4CCC[C@H]4C(=O)N[C@@H](Cc4ccc(O)cc4)C(=O)N[C@H](C(=O)N[C@@H](CC(C)C)C(=O)O)C(C)(C)C)C3=O)C1=O)[C@]1(C)O[C@H]1[C@H](C)[C@@H]1C[C@@](O)(NC(=O)O1)[C@H](OC)/C=C/C=C(\C)C2` (some centres unmarked) [Compound 33], for which, in assay [1], the pKi was 8.63. Moreover, the pIC50 in assay [2] was 6.98.

Turning to `CC[C@H](C)[C@@H]([C@@H](CC(=O)N1CCC[C@H]1[C@H](OC)[C@@H](C)C(=O)N[C@H](C)[C@@H](O)c1ccccc1)OC)N(C)C(=O)[C@@H](NC(=O)[C@H](C(C)C)N(C)C(=O)OCc1ccc(NC(=O)[C@H](CCCNC(N)=O)NC(=O)[C@@H](NC(=O)CCCCCN2C(=O)CC(SC(C)(C)[C@H](NC(C)=O)C(=O)N3CCC[C@H]3C(=O)N[C@@H](CCCCN)C(=O)N[C@@H](CCCNC(=N)N)C(=O)N3CCC[C@H]3C(=O)N[C@@H](Cc3ccc(O)cc3)C(=O)N[C@H](C(=O)N[C@@H](CC(C)C)C(=O)O)C(C)(C)C)C2=O)C(C)C)cc1)C(C)C` (stereo partly drawn) [Compound 59] (I: Ac-[Pen]PKRPY[Tle]L-OH / II: V[Cit][PABC][NMeV]V[Dil][Dolaproine]-X1; linker I:1-II:N via Hexanoyl(6-succinimido-3yl)), the pKi in assay [1] is 8.16. Besides, the pIC50 in assay [2] is 7.19.

On to `COc1cccc2c1C(=O)c1c(O)c3c(c(O)c1C2=O)C[C@@](O)(C(=O)CO)C[C@@H]3O[C@H]1C[C@H](NC(=O)OCCSSC(C)(C)[C@H](NC(C)=O)C(=O)N2CCC[C@H]2C(=O)N[C@@H](CCCNC(=N)N)C(=O)N[C@@H](CCCNC(=N)N)C(=O)N2CCC[C@H]2C(=O)N[C@@H](Cc2ccc(O)cc2)C(=O)N[C@H](C(=O)N[C@@H](CC(C)C)C(=O)O)C(C)(C)C)[C@H](O)[C@H](C)O1` [Compound 51] (Ac-[Pen](X3)PRRPY[Tle]L-OH), for which, in assay [1], the pKi is 8.87. The pIC50 in assay [2] was 5.80.

As to `CO[C@H]1C(=O)[C@]2(C)[C@@H](OC)C[C@H]3OC[C@@]3(OC(C)=O)[C@H]2[C@H](OC(=O)c2ccccc2)[C@]2(O)C[C@H](OC(=O)[C@H](OC(=O)CCCCCN3C(=O)CC(SC(C)(C)[C@H](NC(C)=O)C(=O)N4CCC[C@H]4C(=O)N[C@@H](CCCNC(=N)N)C(=O)N[C@@H](CCCNC(=N)N)C(=O)N4CCC[C@H]4C(=O)N[C@@H](Cc4ccc(O)cc4)C(=O)N[C@H](C(=O)N[C@@H](CC(C)C)C(=O)O)C(C)(C)C)C3=O)[C@@H](NC(=O)OC(C)(C)C)c3ccccc3)C(C)=C1C2(C)C` (some centres unmarked) [Compound 4], the pKi in assay [1] is 8.69. For the same molecule, the pIC50 in assay [2] was 6.86.
